From patent US8613927B2, “High affinity human antibodies to human nerve growth factor” (Regeneron Pharmaceuticals, Inc., priority 2007, dated 2013)

Columns and labels:
[1] = molecular target: T1, human NT-3 binding to human TrkA-hFc (Homo sapiens, UniProt P20783); assay: BIACORE, NT-3 binding to TrkA-hFc surface in presence of antibody; settings: 20 nM NT-3 + 500 nM sample; normalized to IgG1 control
T1 sequence (P20783 139-257): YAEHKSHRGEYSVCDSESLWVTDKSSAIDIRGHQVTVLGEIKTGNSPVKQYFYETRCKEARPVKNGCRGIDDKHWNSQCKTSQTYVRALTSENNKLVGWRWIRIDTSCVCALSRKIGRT
Description: (§1) Human TrkA-hFc (9300 RU), human TrkB-hFc (6000 RU), human TrkC-hFc (9100 RU) and human p75-hFc (7500 RU) were covalently coupled to BIACORE® CM5 chip surfaces by amine-coupling procedure. […] The binding mixture was first incubated at room temperature to reach equilibrium (about 1 hr) and then was injected over the above TrkA-hFc, TrkB-hFc, TrkC-hFc and p75-hFc surfaces. The level of human NT-3 binding in each sample was measured. The binding RU from each sample mixture was normalized according to the RU value from the negative control sample (i.e., 20 nM human NT-3 with 500 nM AVASTIN®) and presented as % binding to Trk surfaces (Table 9).

[2] = molecular target: T2, human NT-3 binding to human TrkB-hFc (Homo sapiens, UniProt P20783); assay: BIACORE, NT-3 binding to TrkB-hFc surface in presence of antibody; settings: 20 nM NT-3 + 500 nM sample; normalized to IgG1 control
T2 sequence (P20783 139-257): T1 sequence (P20783 139-257)
Description: as §1

[3] = molecular target: T3, human NT-3 binding to human TrkC-hFc (Homo sapiens, UniProt P20783); assay: BIACORE, NT-3 binding to TrkC-hFc surface in presence of antibody; settings: 20 nM NT-3 + 500 nM sample; normalized to IgG1 control
T3 sequence (P20783 139-257): T1 sequence (P20783 139-257)
Description: as §1

[4] = molecular target: T4, human NT-3 binding to human p75-hFc (Homo sapiens, UniProt P20783); assay: BIACORE, NT-3 binding to p75-hFc surface in presence of antibody; settings: 20 nM NT-3 + 500 nM sample; normalized to IgG1 control
T4 sequence (P20783 139-257): T1 sequence (P20783 139-257)
Description: as §1

C57BL/6 mice [5] = assay: Post-operative incision pain model, weight bearing test; assay type: in vivo, mouse; settings: for mean percent weight distribution on affected limb: Table 15
Description: Post-operative incision pain model. A rodent model of post-operative pain in which a hind paw plantar incision causes increased sensitivity to touch, guarding behavior, and thermal hyperalgesia, was used to study the efficacy of anti-NGF antibody therapy. For the plantar incision surgery, C57BL/6 mice under isoflurane received an incision through skin, fascia and then isolating the underlying flexor muscle and bisecting vertically. After suture and recovery, the mice were tested for thermal hyperalgesia in the Hargreaves' test and for guarding behavior in the weight bearing test (model 600, IITC Life Science) for 5 days.

C57BL/6 mice [6] = assay: Post-operative incision pain model, mechanical allodynia in von Frey test; assay type: in vivo, mouse; settings: Table 17
Description: Thermal hyperalgesia was studied in the Hargreaves' test and mechanical allodynia was tested in the von Frey test. In this latter test, mice were tested after being acclimated for 2-3 hours for 4 days in an apparatus with a wire mesh floor. The test was performed by applying, in ascending order, a series of von Frey hairs through the wire mesh onto the plantar surface of the hind paw with the incision. A response was considered positive if the paw was raised from the platform in response to application of the filament. Starting from the thinnest hair, each von Frey filament was applied up to five times until a response was observed.

C57BL/6 male mice = assay: Seltzer model of neuropathic pain, Hargreaves' test; assay type: in vivo, mouse
Excerpt: Neuropathic pain. The mouse Seltzer model of neuropathic pain (Malmberg et al. (1998) Pain 76:215-222) was used with C57BL/6 male mice, in which a partial nerve injury was produced by tying a tight ligature with a 7-0 silk suture around approximately ⅓ to ½ the diameter of the sciatic nerve of one single thigh per mouse. Post-surgery, the mice were allowed to recover for at least two days and then they were studied for several weeks post-surgery for thermal hyperalgesia in the Hargreaves' test. Controls were sham-operated mice in which the sciatic nerve was exposed and elevated but not tied. Following surgery, the mice were tested at day […] and at day 7 post-surgery to confirm that the thermal hyperalgesia had developed.
Following the Seltzer surgery, mice were tested at days 5 and 7 post-surgery to confirm that the thermal hyperalgesia had developed.

Substance: tanezumab [RN624]
- % binding to TrkA-hFc surface [1]: 7%
- % binding to TrkB-hFc surface [2]: 8%
- % binding to TrkC-hFc surface [3]: 8%
- % binding to p75-hFc surface [4]: 19%
- reduction of post-operative pain vs vehicle, weight bearing test (C57BL/6 mice [5]; 10 mg/kg s.c. 1 hr prior to incision, p<0.001-0.05): significantly reduced the post-operative pain
- mean percent weight distribution on affected limb (C57BL/6 mice [5]; 10 mg/kg s.c. pre-incision, Day 0, ±SEM): 49.0 ± 0.5%
- mean percent weight distribution on affected limb (C57BL/6 mice [5]; 10 mg/kg, Day 1 after surgery): 44.8 ± 1.9%
- mean percent weight distribution on affected limb (C57BL/6 mice [5]; 10 mg/kg, Day 2 after surgery): 42.7 ± 1.8%
- mean percent weight distribution on affected limb (C57BL/6 mice [5]; 10 mg/kg, Day 3 after surgery): 48.7 ± 1.9%
- mean percent weight distribution on affected limb (C57BL/6 mice [5]; 10 mg/kg, Day 4 after surgery): 47.2 ± 1.2%
- mean percent weight distribution on affected limb (C57BL/6 mice [5]; 10 mg/kg, Day 5 after surgery): 49.7 ± 0.7%
- Paw Withdrawal Threshold (C57BL/6 mice [6]; 25 mg/kg i.p. on day 1 post-surgery, Baseline): 1.314 ± 0.137 g
- Paw Withdrawal Threshold (C57BL/6 mice [6]; 25 mg/kg i.p., 5 hr after treatment): 0.083 ± 0.053 g
- Paw Withdrawal Threshold (C57BL/6 mice [6]; 25 mg/kg i.p., 22 hr after treatment): 0.610 ± 0.123 g
- Paw Withdrawal Threshold (C57BL/6 mice [6]; 25 mg/kg i.p., 45 hr after treatment): 0.909 ± 0.216 g
- Paw Withdrawal Threshold (C57BL/6 mice [6]; 25 mg/kg i.p., 70 hr after treatment): 1.143 ± 0.189 g
- Paw Withdrawal Threshold (C57BL/6 mice [6]; 25 mg/kg i.p., Day 1 (post-surgery, before injection)): 0.010 ± 0.002 g
- pain relief (C57BL/6 male mice; 50 mg/kg s.c. or i.p. at day 7 post-surgery, p<0.001-0.05): Significant pain relief was observed
- mean percent change from Hargreaves baseline (C57BL/6 male mice; Table 25, 50 mg/kg s.c. at day 7, day 5 after surgery): −53.5 ± 6.3%
- mean percent change from Hargreaves baseline (C57BL/6 male mice; Table 25, 50 mg/kg s.c. at day 7, day 7): −48.4 ± 6.2%
- mean percent change from Hargreaves baseline (C57BL/6 male mice; Table 25, 50 mg/kg s.c. at day 7, day 8): 4.5 ± 9.0%
- mean percent change from Hargreaves baseline (C57BL/6 male mice; Table 25, 50 mg/kg s.c. at day 7, day 9): −15.2 ± 8.5%
- mean percent change from Hargreaves baseline (C57BL/6 male mice; Table 25, 50 mg/kg s.c. at day 7, day 12): −4.2 ± 12.0%
- mean percent change from Hargreaves baseline (C57BL/6 male mice; Table 25, 50 mg/kg s.c. at day 7, day 15): 2.1 ± 10.9%
- mean percent change from Hargreaves baseline (C57BL/6 male mice; Table 25, 50 mg/kg s.c. at day 7, day 19): −11.5 ± 12.1%
- mean percent change from Hargreaves baseline (C57BL/6 male mice; Table 25, 50 mg/kg s.c. at day 7, day 22): −5.7 ± 9.5%
- mean percent change from Hargreaves baseline (C57BL/6 male mice; Table 25, 50 mg/kg s.c. at day 7 post-surgery, Baseline): 0.0 ± 0.0%
- mean percent change from Hargreaves baseline (C57BL/6 male mice; Table 26, 50 mg/kg i.p. at day 7, day 5 after surgery): −56.6 ± 2.3%
- mean percent change from Hargreaves baseline (C57BL/6 male mice; Table 26, 50 mg/kg i.p. at day 7, day 7): −62.3 ± 3.4%
- mean percent change from Hargreaves baseline (C57BL/6 male mice; Table 26, 50 mg/kg i.p. at day 7, day 8): −3.3 ± 16.0%
- mean percent change from Hargreaves baseline (C57BL/6 male mice; Table 26, 50 mg/kg i.p. at day 7, day 9): −18.4 ± 12.9%
- mean percent change from Hargreaves baseline (C57BL/6 male mice; Table 26, 50 mg/kg i.p. at day 7, day 12): −7.0 ± 11.8%
- mean percent change from Hargreaves baseline (C57BL/6 male mice; Table 26, 50 mg/kg i.p. at day 7, day 15): −16.2 ± 14.8%
- mean percent change from Hargreaves baseline (C57BL/6 male mice; Table 26, 50 mg/kg i.p. at day 7 post-surgery, Baseline): 0.0 ± 0.0%
